This is an account of results in the supplement of paper PMC10307832.

Common to all, as to experiment: relative viability (nuclei count vs DMSO), 5 days (fraction); higher = more cells survive
Compound in the experiment “AZ505 + Alpelisib”: C1CCC(CC1)N(CCNCCC2=C3C(=C(C=C2)O)NC(=O)CO3)C(=O)CCNCCC4=CC(=C(C=C4)Cl)Cl [AZ505] + Cc1nc(NC(=O)N2CCC[C@H]2C(N)=O)sc1-c1ccnc(C(C)(C)C(F)(F)F)c1 [Alpelisib] (partner 2 µM)
Put shortly: (§1)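 Relative viability was taken as the ratio of nuclei in treated wells to nuclei in vehicle wells. Lung cancer cell lines in 1536-well plates received compounds by pin tool one day after seeding, either one drug alone or a fixed anchor-drug dose plus five library-drug doses (not always all listed) in √10 steps. Nuclei were counted on 4× images after 5 days of treatment, and values are medians of duplicate plates.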

Compound in the experiment “AZ505 + Decitabine”: C1CCC(CC1)N(CCNCCC2=C3C(=C(C=C2)O)NC(=O)CO3)C(=O)CCNCCC4=CC(=C(C=C4)Cl)Cl [AZ505] + Nc1ncn([C@H]2C[C@H](O)[C@@H](CO)O2)c(=O)n1 [Decitabine] (partner 2 µM)
An outline of the steps: as §1

Compound in the experiment “AZ505 + Vorinostat”: C1CCC(CC1)N(CCNCCC2=C3C(=C(C=C2)O)NC(=O)CO3)C(=O)CCNCCC4=CC(=C(C=C4)Cl)Cl [AZ505] + O=C(CCCCCCC(=O)Nc1ccccc1)NO [Vorinostat] (partner 1 µM)
An outline of the steps:
as §1

Compound in the experiment “Dactolisib + Lapatinib”: Cn1c(=O)n(-c2ccc(C(C)(C)C#N)cc2)c2c3cc(-c4cnc5ccccc5c4)ccc3ncc21 [Dactolisib] + CS(=O)(=O)CCNCc1ccc(-c2ccc3ncnc(Nc4ccc(OCc5cccc(F)c5)c(Cl)c4)c3c2)o1 [Lapatinib] (partner 2 µM)
An outline of the steps:
as §1

Consider UMC-11, for which the relative viability in the experiment with AZ505 + Alpelisib (first compound 0.08 µM) worked out at 0.936; with AZ505 + Alpelisib (first compound 0.253 µM), 1.13; with AZ505 + Alpelisib (first compound 0.8 µM), 0.899; with AZ505 + Alpelisib (first compound 2.53 µM), 0.827; with AZ505 + Alpelisib (first compound 8 µM) it was 1.04; in the experiment with AZ505 + Decitabine (first compound 0.08 µM), 0.742. The relative viability stood at 0.674 with AZ505 + Decitabine (first compound 0.253 µM); 0.53 with AZ505 + Decitabine (first compound 0.8 µM); 0.52 with AZ505 + Decitabine (first compound 2.53 µM); 0.666 in the experiment with AZ505 + Decitabine (first compound 8 µM); 0.371 in the experiment with AZ505 + Vorinostat (first compound 0.08 µM); 0.433 with AZ505 + Vorinostat (first compound 0.253 µM). The relative viability in the experiment with AZ505 + Vorinostat (first compound 0.8 µM) came to 0.367; with AZ505 + Vorinostat (first compound 2.53 µM), 0.434; in the experiment with AZ505 + Vorinostat (first compound 8 µM) it was 0.397; in the experiment with Dactolisib + Lapatinib (first compound 0.002 µM), 0.863; with Dactolisib + Lapatinib (first compound 0.006325 µM), 0.788; in the experiment with Dactolisib + Lapatinib (first compound 0.02 µM), 0.78. For the same cell line, the relative viability with Dactolisib + Lapatinib (first compound 0.06325 µM) was 0.316; in the experiment with Dactolisib + Lapatinib (first compound 0.2 µM), 0.272.
